Data taken from US9284292B2, “Sialochimeric compounds” (THERAPICON S.R.L., priority 2009, dated 2016).

How the values were obtained:
[1] = in vivo; cited from earlier work
[2] = tested on: influenza virus A/H1N1 (A/New Caledonia/20/99); assay: organism not typed; assay type: cell-based, influenza virus type A; conditions: MDCK, 72 h, read-out: EC50 vs A/H1N1
[3] = tested on: influenza virus A/H3N2 (A/Panama/2007/99); assay: organism not typed; assay type: cell-based, influenza virus type A; conditions: MDCK, 72 h, read-out: EC50 vs A/H3N2
[4] = tested on: influenza virus B (B/Parma/1/07); assay: microbe, parasite or virus in culture; assay type: cell-based; conditions: study I; for EC50: 72 h, MDCK cells, 50% plaque reduction vs control, 3 days
[5] = tested on: influenza virus A/H1N1 (A/New Caledonia/20/1999); assay type: cell-based, influenza virus type A

Compound: CC(=O)N[C@H]1[C@H]([C@H](O)[C@H](O)CO)OC(C(=O)O)=C[C@@H]1N=C(N)N [zanamivir]
- absorbed by oral route [1]: about 2%

Compound: CC(=O)NC1C(O)CC(NC(=N)NC2C=C(C(=O)O)OC(C(O)C(O)CO)C2NC(C)=O)(C(=O)O)OC1CNC12CC3CC(CC(C3)C1)C2 (stereo not drawn) [THE 10/01, Amantadine-C7-Neu5Ac—C12H20N4O7]
- EC50 [2]: 11.7 µM
- EC50 [3]: 18.3 µM
- EC50 [4]: 99.5 µM

Compound: CCOC(=O)C1=CC(OC(CC)CC)C(NC(C)=O)C(NC2(C(=O)O)CC(O)C(NC(C)=O)C(CNC34CC5CC(CC(C5)C3)C4)O2)C1 (stereo not drawn) [THE 08/01, Amantadine-C7-Neu5Ac—C16H28N2O4]
- EC50 [2]: 9.9 µM
- EC50 [3]: 15.4 µM
- EC50 [5]: 16 µM
- EC50 [4]: 126 µM
- antiviral activity versus virus type A relative to virus type B ([4]; higher versus type A than type B): 10 folds
